In article PMC8175350, “Drug repurposing screens identify chemical entities for the development of COVID-19 interventions” (Nature Communications, 2021):
Several values for one entry are separate records, joined by “and”; a condition that tells them apart may be missing. Identical values can stand only once. Like-named read-outs stand apart in the source and are kept apart here.

What was measured:
Calu-3 cells [1] = assay: Uninfected Calu-3 48 h Cell-Titer Glo cytotoxicity counter screen; conditions: for cytotox: Calu-3, replicate wells n=1-3
[2] = as above; conditions: human, uninfected Calu-3 cells
HeLa-ACE2 cells [3] = assay: cells; conditions: Homo sapiens
SARS-CoV-2 [4] = assay: microbe, parasite or virus in culture; assay type: cell-based; conditions: for %infected: HeLa-ACE2, replicate wells n=1-3
Calu-3 cells [5] = assay: cells; conditions: Homo sapiens
SARS-CoV-2 [6] = assay: microbe, parasite or virus in culture; assay type: cell-based; conditions: for %infected: Calu-3, replicate wells n=1-3
[7] = Uninfected HeLa-ACE2 24 h live/dead cytotoxicity counter screen; assay type: cell-based, human; conditions: human, uninfected HeLa-ACE2 cells
HeLa-ACE2 cells [8] = assay: as above; assay type: cell-based, human; conditions: for cytotox: HeLa-ACE2, replicate wells n=1-3
SARS-CoV-2 [9] = assay: microbe, parasite or virus in culture; assay type: cell-based; conditions: for TOA: HeLa-ACE2, replicate wells n=1-3
[10] = curve-fit effect at infinite concentration, average

Compound: COCc1c(C(C)C)nc(C(C)C)c(/C=C/[C@@H](O)C[C@@H](O)CC(=O)O)c1-c1ccc(F)cc1 [Cerivastatin sodium]
- Calu-3 uninfected cytotoxicity Sinf Average (Calu-3 cells [1]; [10]): -100%
- CC50 at 48 h ([2]; Calu-3 uninfected cytotoxicity CC50 GeoMean, unrounded geometric mean): > 29.9 µM
- Emax (HeLa-ACE2 cells [3]; HeLa-ACE2, 24 h, read-out: HeLa-ACE2 cell count Sinf Average): 100%
- EC50 (HeLa-ACE2 cells [3]; HeLa-ACE2, read-out: HeLa-ACE2 cell count EC50 GeoMean, unrounded geometric mean): > 9.59 µM
- EC50 (SARS-CoV-2 [4]; Severe acute respiratory syndrome coronavirus 2, HeLa-ACE2, unrounded geometric mean, read-out: HeLa-ACE2 CoV-2 EC50 GeoMean): > 9.59 µM
- Emax (Calu-3 cells [5]; Calu-3, 48 h, read-out: Calu-3 cell count Sinf Average): 89%
- EC50 (Calu-3 cells [5]; Calu-3, read-out: Calu-3 cell count EC50 GeoMean, unrounded geometric mean): 0.936 µM
- Emax (SARS-CoV-2 [6]; Severe acute respiratory syndrome coronavirus 2, Calu-3, 48 h, curve-fit effect at infinite concentration, average, read-out: Calu-3 CoV-2 Sinf Average): 63%
- EC50 (SARS-CoV-2 [6]; Severe acute respiratory syndrome coronavirus 2, Calu-3, unrounded geometric mean, read-out: Calu-3 CoV-2 EC50 GeoMean): 0.348 µM
- CC50 at 24 h ([7]; uninfected cells, Fig. 2b group, read-out: HeLa-ACE2 CC50): ≤ 3 µM
- CC50 at 24 h ([7]; unrounded geometric mean, read-out: HeLa-ACE2 uninfected cytotoxicity CC50 GeoMean): 0.308 µM
- HeLa-ACE2 uninfected cytotoxicity Sinf Average (HeLa-ACE2 cells [8]; [10]): -74%

Compound: COc1ccc(C[C@H](N)C(=O)N[C@H]2[C@@H](O)[C@H](n3cnc4c(N(C)C)ncnc43)O[C@@H]2CO)cc1 [Puromycin]
- cytotox (Calu-3 cells [1]; concentration log[M] -4.52288): -100.931 and -99.9022 and -95.4488 and -97.7263 and -96.8224 and -101.443 and -97.7214 and -100.308 and -97.0229
- cytotox (Calu-3 cells [1]; concentration log[M] -5): -80.4262 and -81.4732 and -68.7172 and -83.9318 and -82.4069 and -88.2536 and -90.1262 and -91.0255 and -86.7764
- cytotox (Calu-3 cells [1]; concentration log[M] -5.47712): -21.5211 and -21.4754 and -12.3695 and -29.1257 and -36.4975 and -41.3268 and -49.2553 and -54.1555 and -56.8603
- cytotox (Calu-3 cells [1]; concentration log[M] -5.95424): -2.83 and -11.281 and -7.043 and -17.8087 and -13.674 and -31.1214 and -23.8075 and -33.8515 and -29.7354
- cytotox (Calu-3 cells [1]; concentration log[M] -6.43136): 2.078 and 1.682 and 8.441 and -6.555 and 0.06053 and -11.5086 and -12.2093 and -0.8504 and -4.056
- cytotox (Calu-3 cells [1]; concentration log[M] -6.90848): 3.604 and 1.518 and 9.871 and 2.227 and 16.0597 and -0.8904 and 5.168 and 1.586 and 4.2472
- cytotox (Calu-3 cells [1]; concentration log[M] -7.38561): 8.858 and -2.4064 and 3.577 and 15.479 and 1.71 and -0.4894 and 11.4275 and 7.753 and 11.1753
- cytotox (Calu-3 cells [1]; concentration log[M] -7.86273): 1.729 and -14.6095 and -2.223 and 9.032 and 7.858 and -12.5661 and -1.561 and 2.663 and 8.58
- CC50 at 48 h ([2]; cytotoxicity CC50, uninfected Calu-3, geomean): 3.95 µM
- EC50 (HeLa-ACE2 cells [3]; HeLa-ACE2, read-out: cell count in infection assay EC50, HeLa-ACE2, geomean, ^↑ = increasing dose-response curve): 1.55 µM
- EC50 (SARS-CoV-2 [4]; HeLa-ACE2, individual values of 9 independent experiments, read-out: EC50 (µM), Fig 1c): 0.435 µM and 0.38 µM and 0.598 µM and 0.621 µM and 0.45 µM and 0.531 µM and 0.521 µM and 0.566 µM and 0.31 µM
- %infected (SARS-CoV-2 [4]; concentration log[M] -5.017): -100.174% and -66.1982% and -101.885% and -101.158% and -100.229% and -100.414% and -100.159% and -100.524% and -100%
- %infected (SARS-CoV-2 [4]; concentration log[M] -5.4942): -100.174% and -93.9019% and -89.6683% and -95.454% and -98.8405% and -100.414% and -93.5473% and -100.524% and -98.8065%
- %infected (SARS-CoV-2 [4]; concentration log[M] -5.9713): -100.174% and -98.3678% and -99.6425% and -99.9897% and -99.6057% and -100.414% and -99.8612% and -100.183% and -99.7407%
- %infected (SARS-CoV-2 [4]; concentration log[M] -6.4484): 1.313%
- EC50 (SARS-CoV-2 [4]; Severe acute respiratory syndrome coronavirus 2, HeLa-ACE2, HeLa-ACE2, MOI 0.09, read-out: EC50): 0.52 µM
- EC50 (SARS-CoV-2 [4]; Severe acute respiratory syndrome coronavirus 2, HeLa-ACE2, HeLa-ACE2, MOI 0.26, read-out: EC50): 0.433 µM
- EC50 (SARS-CoV-2 [4]; Severe acute respiratory syndrome coronavirus 2, HeLa-ACE2, HeLa-ACE2, MOI 0.51, read-out: EC50): 0.43 µM
- EC50 (SARS-CoV-2 [4]; Severe acute respiratory syndrome coronavirus 2, HeLa-ACE2, HeLa-ACE2, MOI 1.1, read-out: EC50): 0.431 µM
- EC50 (SARS-CoV-2 [4]; Severe acute respiratory syndrome coronavirus 2, HeLa-ACE2, HeLa-ACE2, MOI 2.2, read-out: EC50): 0.455 µM
- EC50 (SARS-CoV-2 [4]; Severe acute respiratory syndrome coronavirus 2, HeLa-ACE2, HeLa-ACE2, geomean, read-out: SARS-CoV-2 EC50): 0.48 µM
- EC50 (Calu-3 cells [5]; Calu-3, read-out: cell count EC50, Calu-3, geomean, ^↑ = increasing dose-response curve): > 10 µM
- TOA (SARS-CoV-2 [9]; concentration log[M] -5.017): -102.365 and -102.878 and -104.791 and -98.49 and -99.8269 and -99.8889 and -98.5459 and -89.5564 and -100
- TOA (SARS-CoV-2 [9]; concentration log[M] -5.4942): -102.562 and -103.725 and -107.111 and -95.8769 and -99.8786 and -99.7495 and -98.3444 and -97.4941 and -99.8965
- TOA (SARS-CoV-2 [9]; concentration log[M] -5.9713): -102.27 and -103.614 and -103.314 and -96.7138 and -100 (3×) and -98.3433 and -92.9164
- TOA (SARS-CoV-2 [9]; concentration log[M] -6.4484): -6.41 and -22.1743 and -1.526 and -76.305 and -86.1829 and -83.03 and -58.994 and -58.9112 and -89.0793
- TOA (SARS-CoV-2 [9]; concentration log[M] -6.9255): -12.6152 and -14.5357 and 3.304 and -16.4877 and -30.7409 and -13.5207 and -8.881 and -3.253 and -32.0225
- TOA (SARS-CoV-2 [9]; concentration log[M] -7.4026): -1.409 and 2.055 and 2.822 and -9.903 and -4.893 and -5.119 and -5.9163 and -2.505 and -5.006
- TOA (SARS-CoV-2 [9]; concentration log[M] -7.8798): -0.7005 and -1.372 and 4.453 and -4.998 and -0.516 and 2.028 and -14.3841 and -2.585 and -13.6565
- EC50 (SARS-CoV-2 [9]; Severe acute respiratory syndrome coronavirus 2, HeLa-ACE2, fixed 10 hpi, geomean, read-out: CoV-2 TOA EC50): 0.316 µM
- %infected (SARS-CoV-2 [6]; concentration log[M] -5): -95.8583% and -98.0315% and -98.6862% and -95.9501% and -76.0417% and -82.6326% and -93.9332% and -99.6609% and -93.5404%
- %infected (SARS-CoV-2 [6]; concentration log[M] -5.47712): -67.9332% and -73.9862% and -77.2001% and -69.7882% and -47.5028% and -51.8982% and -50.0755% and -50.9352% and -58.0559%
- %infected (SARS-CoV-2 [6]; concentration log[M] -5.95424): -28.7555% and -23.4276% and -35.8088% and -33.2702% and 12.7351% and -26.1199% and 1.582% and -3.868% and -16.5101%
- %infected (SARS-CoV-2 [6]; concentration log[M] -6.43136): -8.682% and 16.1023% and -10.697% and 2.701% and -30.2762% and -2.034% and 9.733% and 3.624% and 18.0604%
- %infected (SARS-CoV-2 [6]; concentration log[M] -6.90849): 14.8237% and -16.8235% and 10.3561% and -2.261% and -10.1676% and -3.437% and 1.061% and 10.2779% and -14.1014%
- %infected (SARS-CoV-2 [6]; concentration log[M] -7.38561): 9.109% and 11.8626% and -0.1312% and 10.7467% and -22.0858% and 7.736% and -8.662% and -8.078% and 8.576%
- %infected (SARS-CoV-2 [6]; concentration log[M] -7.86273): -4.7462% and 13.3419% and -1.416% and -3.878% and 20.4436% and -1.961% and -6.536% and -8.873% and -15.4821%
- %infected (SARS-CoV-2 [6]; concentration log[M] -8.33985): 2.5816% and -20.6025% and -3.165% and -4.091% and -15.6383% and 9.983% and 19.7898% and 7.961% and 5.366%
- EC50 (SARS-CoV-2 [6]; Severe acute respiratory syndrome coronavirus 2, Calu-3, Calu-3, geomean, read-out: SARS-CoV-2 EC50): 2.74 µM
- CC50 at 24 h ([7]; geomean, read-out: uninfected HeLa-ACE2 cytotoxicity CC50): 0.658 µM
- cytotox (HeLa-ACE2 cells [8]; concentration log[M] -4.39794): -100 (5×) and -99.957 and -100.055 and -99.8917 and -99.5551
- cytotox (HeLa-ACE2 cells [8]; concentration log[M] -4.87506): -100 (5×) and -100.043 and -100.055 and -99.8917 and -99.8888
- cytotox (HeLa-ACE2 cells [8]; concentration log[M] -5.35218): -99.2405 and -100.043 and -100 and -99.7082 and -99.8513 and -99.7143 and -99.834 and -99.8917 and -99.8888
- cytotox (HeLa-ACE2 cells [8]; concentration log[M] -5.8293): -94.5992 and -94.54 and -94.2197 and -97.5201 and -91.5242 and -94.1429 and -95.9602 and -98.5916 and -99.2214
- cytotox (HeLa-ACE2 cells [8]; concentration log[M] -6.30643): -16.5401 and -18.2717 and -10.2395 and -53.9023 and -53.9033 and -44.2857 and -37.078 and -52.3294 and -37.5973
- cytotox (HeLa-ACE2 cells [8]; concentration log[M] -6.78355): -2.194 and 3.482 and 5.615 and -5.9081 and 6.4684 and -6.286 and -2.656 and 2.0585 and 1.78
- cytotox (HeLa-ACE2 cells [8]; concentration log[M] -7.26067): 9.198 and 8.212 and 13.6251 and -16.9949 and 6.9145 and -11.5714 and 1.66 and 4.117 and 13.2369
- cytotox (HeLa-ACE2 cells [8]; concentration log[M] -7.73779): 5.148 and 2.193 and 2.395 and 7.367 and 9.294 and 9.714 and 11.1787 and -1.625 and 6.897
